Data set [1] concerns HaCaT keratinocytes. The class given is cell-based, human. The procedure:
HaCaT cells were obtained from American Type Culture Collection (ATCC). Cells were cultivated in Dulbecco’s modified Eagle Medium (Invitrogen) with 10% fetal bovine serum in humidified incubator at […] in 5% CO2 and cultured in 96-well plates and allowed to grow to 60–70% confluence prior to the start of the experiments.
The MTT assay is a colorimetric technique for assessing cell metabolic activity based on NAD(P)H-dependent cellular oxidoreductase enzymes activity that, under defined conditions, reflects the number of viable cells present. Viable cells reduce the tetrazolium dye MTT 3-(4,5-dimethylthiazol-2-yl)-2,5-diphenyltetrazolium bromide to its insoluble formazan, which has a purple colour. The colour intensity reflects the number of live cells and can be measured spectrophotometrically. Briefly, one day after culturing 500 cells per well, different concentrations of compounds were applied. After a 24-h incubation with the specified compounds, a medium containing 1 mg/mL MTT was added to the cells (HaCaT keratinocytes) up to a final concentration of 0.5 mg/mL and incubated at 37 °C for 4 h. The medium was then aspired, and the formazan product was solubilized with DMSO. The absorbance at 630 nm (background absorbance) was subtracted and absorbance measured at 570 nm for each well. There were 6 replicates for each tested concentration. All experiments were repeated at least twice. The resulting IC50 values were calculated with a GraFit 7 software (v. 7.0, Erithacus, Berkley, CA, USA).

For data set [2], the system named is Staphylococcus aureus (ATCC 25923). The class given is cell-based. To be noted: for MBC S. aureus / MIC S. aureus: ATCC 25923, 18 h. As to the method:
(§1) The compounds were dissolved in a mixture of dimethyl sulphoxide (DMSO) and phosphate buffer (PBS). […] MIC was determined by the serial dilution method on polystyrene 96-well plates with Mueller–Hinton II broth (MHB II) for reference bacterial strains: Staphylococcus aureus (ATCC 25923) and Escherichia coli (ATCC 25922), while for Candida albicans (ATCC 10231), the Sabouraud dextrose broth was applied. The microorganisms were obtained from the Polish Collection of Microorganisms (Wroclaw, Poland). Bacteria were cultured at 37 °C under aerobic conditions overnight in Brain Heart Infusion broth, centrifuged at 1000 rpm for 8 min, washed thrice with PBS and resuspended in MHB II. Candida albicans was cultured in Sabouraud dextrose broth for 48 h at 27 °C under aerobic conditions, centrifuged at 1000 rpm for 8 min, washed thrice with PBS and resuspended in Sabouraud dextrose broth. Bacterial (5 × 10^5 CFU/mL) and fungal (5 × 10^4 CFU/mL) suspensions were exposed to lipopeptides applied at graded concentrations (range 1–512 mg/L) for 18 h at 37 °C under aerobic conditions (bacteria) and 48 h at 27 °C under aerobic conditions (fungi). MIC was taken as the lowest concentration at which no visible growth of bacteria/fungi was observed. MBC and MFC were determined using MH II agar and Sabouraud Dextrose agar, for bacteria and fungi respectively. The contents of wells with MICs and two subsequent higher concentrations were transferred to agar plates and cultivated for 18 h at 37 °C under aerobic conditions (bacteria) and 48 h at 27 °C under aerobic conditions (fungi). The MBC and MFC were taken as the lowest concentrations at which no colony forming units were found. All tests were performed in triplicate.

Data set [3] relates to Candida albicans (ATCC 10231). The class given is cell-based. To be noted: ATCC 10231, 48 h. As to the method:
as §1

For data set [4], the system named is Escherichia coli (ATCC 25922). The class given is cell-based. To be noted: for MBC E. coli / MIC E. coli: ATCC 25922, 18 h. The procedure:
as §1

The format of data set [5] is physicochemical. As to the method: as §1
Data set [6] deals with Staphylococcus aureus (ATCC 25923). Further details: method as in 2 sources, ref 11 = [11]; PMID 28203232; doi:10.3389/fmicb.2017.00123; 11. Greber K.E. Dawgul M. Kamysz W. Sawicki W. Cationic net charge and counter ion type as antimicrobial activity determinant factors of short lipopeptides Front. Microbiol. 2017 8 1 10 10.3389/fmicb. ||| ref 12 = [12]; PMID 24748099; doi:10.1007/s00726-014-1744-9; 12. Greber K.E. Dawgul M. Kamysz W. Sawicki W. Łukasiak J. Biological and surface-active properties of double-chain cationic amino acid-based surfactants Amino Acids 2014 46 1893 1898 10.1007/s00726-0. The following applies: cited from earlier work; for MIC S. aureus: ATCC 25923, serial dilution; for MBC S. aureus: ATCC 25923.

For data set [7], the system named is Candida albicans (ATCC 10231). On the set-up: method as in 2 sources, ref 11 = [11]; PMID 28203232; doi:10.3389/fmicb.2017.00123; 11. Greber K.E. Dawgul M. Kamysz W. Sawicki W. Cationic net charge and counter ion type as antimicrobial activity determinant factors of short lipopeptides Front. Microbiol. 2017 8 1 10 10.3389/fmicb. ||| ref 12 = [12]; PMID 24748099; doi:10.1007/s00726-014-1744-9; 12. Greber K.E. Dawgul M. Kamysz W. Sawicki W. Łukasiak J. Biological and surface-active properties of double-chain cationic amino acid-based surfactants Amino Acids 2014 46 1893 1898 10.1007/s00726-0. To be noted: cited from earlier work; for MIC C. albicans: ATCC 10231, serial dilution; for MFC C. albicans: ATCC 10231.

Data set [8] relates to Escherichia coli (ATCC 25922). Further details: method as in 2 sources, ref 11 = [11]; PMID 28203232; doi:10.3389/fmicb.2017.00123; 11. Greber K.E. Dawgul M. Kamysz W. Sawicki W. Cationic net charge and counter ion type as antimicrobial activity determinant factors of short lipopeptides Front. Microbiol. 2017 8 1 10 10.3389/fmicb. ||| ref 12 = [12]; PMID 24748099; doi:10.1007/s00726-014-1744-9; 12. Greber K.E. Dawgul M. Kamysz W. Sawicki W. Łukasiak J. Biological and surface-active properties of double-chain cationic amino acid-based surfactants Amino Acids 2014 46 1893 1898 10.1007/s00726-0. The following applies: cited from earlier work; for MIC E. coli: ATCC 25922, serial dilution; for MBC E. coli: ATCC 25922.

The subject of data set [9] is human keratinocytes. To be noted: cited from earlier work. From the text:
(§2) The results of the MTT assay obtained in this study indicate high toxicity of lipopeptides containing one palmitic acid chain. This contradicts the previously advanced hypotheses about the selectivity of antimicrobial peptides. According to some authors, peptides designed based on naturally occurring compounds in human organisms are expected to be safe to human cells and their selectivity results from the presence of cholesterol and arrangement of lipids in the eukaryotic cell membrane. […] In the previou ...

Data set [10] deals with human red blood cells. To be noted: cited from earlier work.
From the text: as §2

[11] abbreviates: MTT assay, 24 h exposure, 6 replicates per concentration, experiments repeated at least twice.
Setting [12] is: classification of antimicrobial peptides from patent.

These results are taken from article PMC6150024, “In Vitro Evaluation of Cytotoxicity and Permeation Study on Lysine- and Arginine-Based Lipopeptides with Proven Antimicrobial Activity” (Molecules : A Journal of Synthetic Chemistry and Natural …, 2017).

Converted amounts (≈) assume the structure as drawn. Where two headings read alike, the source gives them in different places. Residues, ends and D or L forms follow the SMILES beside them. *: point of attachment. Palmitoyl = CCCCCCCCCCCCCCCC(=O)* A value given as a limit tells only on which side of the number the result lay.

For `CCCCCCCCCCCCCCCC(=O)N[C@@H](CCCCN)C(=O)NCCCC[C@H](N)C(N)=O` [Lipopeptide C16-KεK-NH2], in data set [1] (24 h), the “IC50 ± SD on HaCaT keratinocytes” value amounted to 7.4 ± 0.9 mg/L (≈ 14.5 µM). In data set [2], the “MBC S. aureus” value is 8 µg/mL (≈ 15.6 µM) and the “MIC S. aureus” value was 8 µg/mL (≈ 15.6 µM). Also, in data set [3], the “MFC C. albicans” value turned out to be 256 µg/mL (≈ 500 µM) and the “MIC C. albicans” value stood at 128 µg/mL (≈ 250 µM). In data set [4], the “MBC E. coli” value is 32 µg/mL (≈ 62.5 µM) and the “MIC E. coli” value is 16 µg/mL (≈ 31.3 µM).

On to `CCCCCCCCCCCCCCCC(=O)N[C@@H](CCCCN)C(=O)N[C@@H](CCCCN)C(=O)N[C@@H](CCCCN)C(N)=O` [Lipopeptide C16-KKK-NH2], for which, in [1] (24 h), the “IC50 ± SD on HaCaT keratinocytes” value turned out to be 3.2 ± 0.1 mg/L (≈ 5 µM). Also, the “Concentration at which solutions were obtained” value in data set [5] turned out to be 512 µg/mL. Moreover, in data set [6] (Table 1 ref 11), the “MIC S. aureus” value is 4 µg/mL (≈ 6.25 µM) and the “MBC S. aureus” value is 8 µg/mL (≈ 12.5 µM). In data set [7] (Table 1 ref 11), the “MIC C. albicans” value was 128 µg/mL (≈ 200 µM) and the “MFC C. albicans” value was 128 µg/mL (≈ 200 µM). In addition, in [8] (Table 1 ref 11), the “MIC E. coli” value is 8 µg/mL (≈ 12.5 µM) and the “MBC E. coli” value was 16 µg/mL (≈ 25 µM).

Consider (C12)2-KKKK-NH2, for which the “IC50 ± SD on HaCaT keratinocytes” value in data set [1] (setting [11]) is recorded as 42.1 ± 9.1 mg/L. Also, in data set [6] (Table 1 ref 12), the “MIC S. aureus” value was 16 µg/mL and the “MBC S. aureus” value is 32 µg/mL. Besides, in data set [7] (Table 1 ref 12), the “MIC C. albicans” value is 256 µg/mL and the “MFC C. albicans” value was 512 µg/mL. In addition, in data set [8] (Table 1 ref 12), the “MIC E. coli” value is 64 µg/mL and the “MBC E. coli” value was 64 µg/mL.

Consider `CCCCCCCCCCCCCCCC(=O)N[C@@H](CCCCN)C(=O)N[C@@H](CCCNC(=N)N)C(=O)N[C@@H](CCCCN)C(N)=O` [Lipopeptide C16-KRK-NH2] (Palmitoyl-Lys-Arg-Lys-NH2), for which the “IC50 ± SD on HaCaT keratinocytes” value in [1] (24 h) turned out to be 2.3 ± 0.4 mg/L (≈ 3.44 µM). For the same compound, in data set [2], the “MBC S. aureus” value turned out to be 16 µg/mL (≈ 24 µM) and the “MIC S. aureus” value turned out to be 4 µg/mL (≈ 5.99 µM). For the same compound, in data set [3], the “MFC C. albicans” value was determined as 256 µg/mL (≈ 383 µM) and the “MIC C. albicans” value turned out to be 128 µg/mL (≈ 192 µM). For the same compound, in data set [4], the “MBC E. coli” value was 16 µg/mL (≈ 24 µM) and the “MIC E. coli” value is 8 µg/mL (≈ 12 µM). Moreover, the “Concentration at which solutions were obtained” value in data set [5] was 512 µg/mL.

For `CCCCCCCCCCCCCCCC(=O)N[C@@H](CCCCN)C(=O)N[C@@H](CCCCN)C(N)=O` [Lipopeptide C16-KK-NH2], the “IC50 ± SD on HaCaT keratinocytes” value in [1] (24 h) stood at 1.8 ± 0.2 mg/L (≈ 3.52 µM). The “Concentration at which solutions were obtained” value in data set [5] was 512 µg/mL. For the same compound, the “Concentration with negative influence on proliferation and viability of human keratinocytes” value in data set [9] is ≥ 1 µg/mL. Also, in data set [6] (Table 1 ref 11), the “MIC S. aureus” value is 4 µg/mL (≈ 7.82 µM) and the “MBC S. aureus” value was 4 µg/mL (≈ 7.82 µM). Further, in data set [7] (Table 1 ref 11), the “MIC C. albicans” value is 128 µg/mL (≈ 250 µM) and the “MFC C. albicans” value is 128 µg/mL (≈ 250 µM). Further, in data set [8] (Table 1 ref 11), the “MIC E. coli” value is 8 µg/mL (≈ 15.6 µM) and the “MBC E. coli” value is 8 µg/mL (≈ 15.6 µM).

Take `CCCCCCCCCCCCCCCC(=O)N[C@@H](CCCNC(=N)N)C(=O)N[C@@H](CCCNC(=N)N)C(=O)N[C@@H](CCCNC(=N)N)C(N)=O` [Lipopeptide C16-RRR-NH2] (Palmitoyl-Arg-Arg-Arg-NH2): the “IC50 ± SD on HaCaT keratinocytes” value in data set [1] (24 h) worked out at 3.2 ± 1.4 mg/L (≈ 4.42 µM). In addition, in [2], the “MBC S. aureus” value was 4 µg/mL (≈ 5.52 µM) and the “MIC S. aureus” value worked out at 2 µg/mL (≈ 2.76 µM). In data set [3], the “MFC C. albicans” value worked out at 256 µg/mL (≈ 354 µM) and the “MIC C. albicans” value worked out at 128 µg/mL (≈ 177 µM). Moreover, in data set [4], the “MBC E. coli” value was 16 µg/mL (≈ 22.1 µM) and the “MIC E. coli” value was 16 µg/mL (≈ 22.1 µM).

For `CCCCCCCCCCCCCCCC(=O)N[C@@H](CCCNC(=N)N)C(=O)N[C@@H](CCCNC(=N)N)C(N)=O` [Lipopeptide C16-RR-NH2] (Palmitoyl-Arg-Arg-NH2), the “IC50 ± SD on HaCaT keratinocytes” value in [1] (24 h) is 1.9 ± 0,3 mg/L. Also, in data set [2], the “MBC S. aureus” value came out at 8 µg/mL (≈ 14.1 µM) and the “MIC S. aureus” value amounted to 8 µg/mL (≈ 14.1 µM). In data set [3], the “MFC C. albicans” value was determined as 256 µg/mL (≈ 451 µM) and the “MIC C. albicans” value was found to be 128 µg/mL (≈ 225 µM). For the same compound, in [4], the “MBC E. coli” value stood at 16 µg/mL (≈ 28.2 µM) and the “MIC E. coli” value worked out at 16 µg/mL (≈ 28.2 µM).

Regarding (C10)2-KKKK-NH2, in [1] (setting [11]), the “IC50 ± SD on HaCaT keratinocytes” value is 49.4 ± 9.1 mg/L. In addition, in data set [2] (setting [12]), the “Activity class against S. aureus by classification of Shai and Abrahami” value was “highly active”. Further, the “Activity class against E. coli by classification of Shai and Abrahami” value in data set [4] (setting [12]) is “active”. In [10], the “Toxicity towards human red blood cells at microbiologically active concentrations” value is “non-toxic”. Moreover, in [6] (Table 1 ref 12), the “MIC S. aureus” value is 8 µg/mL and the “MBC S. aureus” value is 16 µg/mL. For the same compound, in data set [7] (Table 1 ref 12), the “MIC C. albicans” value was 128 µg/mL and the “MFC C. albicans” value was 256 µg/mL. Moreover, in data set [8] (Table 1 ref 12), the “MIC E. coli” value is 16 µg/mL and the “MBC E. coli” value was 16 µg/mL.
